Measured values reported in PubChem BioAssay (NCI).
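Protocol summary: plate cells (96-well), add compound at 5 concentrations, incubate 48 h, interpolate endpoints linearly. At the TGI there is no net growth.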

Legend:
Experiment in all cases: inhibition of tumour cell growth, NCI panel, 48 h
786-0 renal = system: 786-0 renal
A498 renal = system: A498 renal
A549 NSCLC = system: A549 NSCLC
ACHN renal = system: ACHN renal
BT-549 breast = system: BT-549 breast
CAKI-1 renal = system: CAKI-1 renal
CCRF-CEM leukemia = system: CCRF-CEM leukemia
COLO 205 colon = system: COLO 205 colon
DU-145 prostate = system: DU-145 prostate
EKVX NSCLC = system: EKVX NSCLC
HCC-2998 colon = system: HCC-2998 colon
HCT-116 colon = system: HCT-116 colon
HCT-15 colon = system: HCT-15 colon
HOP-62 NSCLC = system: HOP-62 NSCLC
HT29 colon = system: HT29 colon
IGROV1 ovarian = system: IGROV1 ovarian
K-562 leukemia = system: K-562 leukemia
KM12 colon = system: KM12 colon
M14 melanoma = system: M14 melanoma
MALME-3M melanoma = system: MALME-3M melanoma
MCF7 breast = system: MCF7 breast
MDA-MB-231 breast = system: MDA-MB-231 breast
MDA-MB-435 = system: MDA-MB-435
MDA-N = system: MDA-N
MOLT-4 leukemia = system: MOLT-4 leukemia
NCI-H460 lung = system: NCI-H460 lung
NCI/ADR-RES ovarian = system: NCI/ADR-RES ovarian
OVCAR-3 ovarian = system: OVCAR-3 ovarian
OVCAR-5 ovarian = system: OVCAR-5 ovarian
OVCAR-8 ovarian = system: OVCAR-8 ovarian
PC-3 prostate = system: PC-3 prostate
RPMI-8226 leukemia = system: RPMI-8226 leukemia
RXF 393 renal = system: RXF 393 renal
SF-268 CNS = system: SF-268 CNS
SF-539 CNS = system: SF-539 CNS
SK-MEL-2 melanoma = system: SK-MEL-2 melanoma
SK-MEL-28 melanoma = system: SK-MEL-28 melanoma
SK-MEL-5 melanoma = system: SK-MEL-5 melanoma
SK-OV-3 ovarian = system: SK-OV-3 ovarian
SN12C renal = system: SN12C renal
SNB-19 CNS = system: SNB-19 CNS
SNB-75 CNS = system: SNB-75 CNS
SR leukemia = system: SR leukemia
SW-620 colon = system: SW-620 colon
T-47D breast = system: T-47D breast
TK-10 renal = system: TK-10 renal
U251 CNS = system: U251 CNS
UACC-257 melanoma = system: UACC-257 melanoma
UACC-62 melanoma = system: UACC-62 melanoma
UO-31 renal = system: UO-31 renal
HOP-92 NSCLC = system: HOP-92 NSCLC
LOX IMVI melanoma = system: LOX IMVI melanoma
NCI-H226 lung = system: NCI-H226 lung
NCI-H23 lung = system: NCI-H23 lung
NCI-H522 lung = system: NCI-H522 lung
OVCAR-4 ovarian = system: OVCAR-4 ovarian
SF-295 CNS = system: SF-295 CNS
HL-60(TB) leukemia = system: HL-60(TB) leukemia

SMILES: CNC(=O)C(C)C1C(=O)/C(=C(O)/C=C\C(C)=C\C(C)C2OC3(C)OC(C=CC34CO4)C2C)C(=O)N1C1CCC(O)C(C)O1 (stereo unspecified)
- TGI (786-0 renal): > 100 µM
- TGI (A498 renal): > 100 µM
- TGI (A549 NSCLC): > 100 µM
- TGI (ACHN renal): > 100 µM
- TGI (BT-549 breast): > 100 µM
- TGI (CAKI-1 renal): > 100 µM
- TGI (CCRF-CEM leukemia): > 100 µM
- TGI (COLO 205 colon): > 100 µM
- TGI (DU-145 prostate): > 100 µM
- TGI (EKVX NSCLC): > 100 µM
- TGI (HCC-2998 colon): > 100 µM
- TGI (HCT-116 colon): > 100 µM
- TGI (HCT-15 colon): > 100 µM
- TGI (HOP-62 NSCLC): > 100 µM
- TGI (HT29 colon): > 100 µM
- TGI (IGROV1 ovarian): > 100 µM
- TGI (K-562 leukemia): > 100 µM
- TGI (KM12 colon): > 100 µM
- TGI (M14 melanoma): > 100 µM
- TGI (MALME-3M melanoma): > 100 µM
- TGI (MCF7 breast): > 100 µM
- TGI (MDA-MB-231 breast): > 100 µM
- TGI (MDA-MB-435): > 100 µM
- TGI (MDA-N): > 100 µM
- TGI (MOLT-4 leukemia): > 100 µM
- TGI (NCI-H460 lung): > 100 µM
- TGI (NCI/ADR-RES ovarian): > 100 µM
- TGI (OVCAR-3 ovarian): > 100 µM
- TGI (OVCAR-5 ovarian): > 100 µM
- TGI (OVCAR-8 ovarian): > 100 µM
- TGI (PC-3 prostate): > 100 µM
- TGI (RPMI-8226 leukemia): > 100 µM
- TGI (RXF 393 renal): > 100 µM
- TGI (SF-268 CNS): > 100 µM
- TGI (SF-539 CNS): > 100 µM
- TGI (SK-MEL-2 melanoma): > 100 µM
- TGI (SK-MEL-28 melanoma): > 100 µM
- TGI (SK-MEL-5 melanoma): > 100 µM
- TGI (SK-OV-3 ovarian): > 100 µM
- TGI (SN12C renal): > 100 µM
- TGI (SNB-19 CNS): > 100 µM
- TGI (SNB-75 CNS): > 100 µM
- TGI (SR leukemia): > 100 µM
- TGI (SW-620 colon): > 100 µM
- TGI (T-47D breast): > 100 µM
- TGI (TK-10 renal): > 100 µM
- TGI (U251 CNS): > 100 µM
- TGI (UACC-257 melanoma): > 100 µM
- TGI (UACC-62 melanoma): > 100 µM
- TGI (UO-31 renal): > 100 µM

SMILES: C=C(C)C(=O)OC1CC2(C)OC(=CC2=O)C(C)CC2OC(=O)C(=C)C12 (stereo unspecified)
- TGI (786-0 renal): 17.6 µM
- TGI (A498 renal): 37.6 µM
- TGI (A549 NSCLC): 47.7 µM
- TGI (ACHN renal): 14.4 µM
- TGI (BT-549 breast): 21.4 µM
- TGI (CAKI-1 renal): 9.02 µM
- TGI (COLO 205 colon): 3.31 µM
- TGI (DU-145 prostate): 18.7 µM
- TGI (EKVX NSCLC): 25.1 µM
- TGI (HCC-2998 colon): 24.8 µM
- TGI (HCT-116 colon): 5.15 µM
- TGI (HCT-15 colon): 5.19 µM
- TGI (HOP-62 NSCLC): 38.1 µM
- TGI (HOP-92 NSCLC): 28.7 µM
- TGI (HT29 colon): 24.2 µM
- TGI (IGROV1 ovarian): 25.4 µM
- TGI (KM12 colon): 55.3 µM
- TGI (LOX IMVI melanoma): 17.8 µM
- TGI (M14 melanoma): 24.2 µM
- TGI (MALME-3M melanoma): 16.1 µM
- TGI (MCF7 breast): 26.6 µM
- TGI (MDA-MB-231 breast): 38.8 µM
- TGI (MDA-MB-435): 25.8 µM
- TGI (MDA-N): 7.98 µM
- TGI (MOLT-4 leukemia): > 35.1 µM
- TGI (NCI-H226 lung): > 62.8 µM
- TGI (NCI-H23 lung): 24.6 µM
- TGI (NCI-H460 lung): 29.7 µM
- TGI (NCI-H522 lung): 4.2 µM
- TGI (NCI/ADR-RES ovarian): 69.8 µM
- TGI (OVCAR-3 ovarian): 19 µM
- TGI (OVCAR-4 ovarian): 20.1 µM
- TGI (OVCAR-5 ovarian): 26.9 µM
- TGI (OVCAR-8 ovarian): 35.6 µM
- TGI (PC-3 prostate): 31.8 µM
- TGI (RPMI-8226 leukemia): > 100 µM
- TGI (RXF 393 renal): 5.62 µM
- TGI (SF-268 CNS): > 100 µM
- TGI (SF-295 CNS): 38.1 µM
- TGI (SF-539 CNS): 14.2 µM
- TGI (SK-MEL-2 melanoma): 34.3 µM
- TGI (SK-MEL-28 melanoma): 30.2 µM
- TGI (SK-MEL-5 melanoma): 13.4 µM
- TGI (SK-OV-3 ovarian): > 100 µM
- TGI (SN12C renal): 36.7 µM
- TGI (SNB-19 CNS): 39.2 µM
- TGI (SNB-75 CNS): 49.2 µM
- TGI (SR leukemia): > 24.7 µM
- TGI (SW-620 colon): 18.3 µM
- TGI (T-47D breast): 27.8 µM
- TGI (TK-10 renal): 28.3 µM
- TGI (U251 CNS): 74.5 µM
- TGI (UACC-257 melanoma): 35.2 µM
- TGI (UACC-62 melanoma): 27.7 µM
- TGI (UO-31 renal): 16.6 µM

SMILES: CC1(CO)OC(n2cnc3cncnc32)CC1O (stereo unspecified)
- TGI (786-0 renal): > 100 µM
- TGI (A498 renal): > 100 µM
- TGI (A549 NSCLC): > 100 µM
- TGI (ACHN renal): > 100 µM
- TGI (BT-549 breast): > 100 µM
- TGI (CAKI-1 renal): > 100 µM
- TGI (CCRF-CEM leukemia): > 100 µM
- TGI (COLO 205 colon): > 100 µM
- TGI (DU-145 prostate): > 100 µM
- TGI (EKVX NSCLC): > 100 µM
- TGI (HCC-2998 colon): > 100 µM
- TGI (HCT-116 colon): > 100 µM
- TGI (HCT-15 colon): > 100 µM
- TGI (HL-60(TB) leukemia): > 100 µM
- TGI (HOP-62 NSCLC): > 100 µM
- TGI (HOP-92 NSCLC): > 100 µM
- TGI (HT29 colon): > 100 µM
- TGI (IGROV1 ovarian): > 100 µM
- TGI (K-562 leukemia): > 100 µM
- TGI (KM12 colon): > 100 µM
- TGI (M14 melanoma): > 100 µM
- TGI (MALME-3M melanoma): > 100 µM
- TGI (MCF7 breast): > 100 µM
- TGI (MDA-MB-231 breast): > 100 µM
- TGI (MDA-MB-435): > 100 µM
- TGI (MDA-N): > 100 µM
- TGI (MOLT-4 leukemia): > 100 µM
- TGI (NCI-H226 lung): > 100 µM
- TGI (NCI-H23 lung): > 100 µM
- TGI (NCI-H460 lung): > 100 µM
- TGI (NCI-H522 lung): > 100 µM
- TGI (NCI/ADR-RES ovarian): > 100 µM
- TGI (OVCAR-3 ovarian): > 100 µM
- TGI (OVCAR-4 ovarian): > 100 µM
- TGI (OVCAR-5 ovarian): > 100 µM
- TGI (OVCAR-8 ovarian): > 100 µM
- TGI (PC-3 prostate): > 100 µM
- TGI (RPMI-8226 leukemia): > 100 µM
- TGI (RXF 393 renal): > 100 µM
- TGI (SF-268 CNS): > 100 µM
- TGI (SF-295 CNS): > 100 µM
- TGI (SF-539 CNS): > 100 µM
- TGI (SK-MEL-2 melanoma): > 100 µM
- TGI (SK-MEL-28 melanoma): > 100 µM
- TGI (SK-MEL-5 melanoma): > 100 µM
- TGI (SK-OV-3 ovarian): > 100 µM
- TGI (SN12C renal): > 100 µM
- TGI (SNB-19 CNS): > 100 µM
- TGI (SR leukemia): > 100 µM
- TGI (SW-620 colon): > 100 µM
- TGI (T-47D breast): > 100 µM
- TGI (TK-10 renal): > 100 µM
- TGI (U251 CNS): > 100 µM
- TGI (UACC-257 melanoma): > 100 µM
- TGI (UACC-62 melanoma): > 100 µM
- TGI (UO-31 renal): > 100 µM
